Among the data in patent US8618154B2, “LXR modulators” (Bristol-Myers Squibb Company, priority 2009, dated 2013) are EC50 values, retold here.

For this test, the system named is ABCA1 gene expression. Nature of the test: Human whole blood assay (hWBA), ABCA1 mRNA induction. It counts as cell-based. The following applies: Homo sapiens; full LXRα and LXRβ pan agonist used as reference; read-out: EC50 of reference compound. Here is the method:
Human whole blood was collected in EDTA containing tubes and 0.5 mL aliquots were immediately mixed in a 96 well block with the appropriate serial dilution of test compound, in 0.5% DMSO. Compounds were incubated with blood at 37° C. with constant rocking for 4 hours. After incubation, cells were lysed in ABI Nucleic Acid Purification Lysis Solution (Applied Biosystems catalog #4305895) and frozen at −80° C. Following cell lysis, total RNA was purified using an ABI 6100 RNA prep station according to the protocol provided by the manufacturer. cDNAs were synthesized, and mRNAs were quantitated using SYBR-Green Quantitative PCR (Q-PCR) on an ABI Prism 7900HT Sequence Detection System and reagents from Quanta Bioscience Inc (Quanta Bioscience catalog #95047 and 95055).
The quantity of each mRNA was determined by the ΔΔCT method (Michael W. Pfaffl. A new mathematical model for relative quantification in real-time RT-PCR. Nucleic Acids Research, 2001, Vol. 29, No. 9 e45) and normalized to the quantity of two control mRNAs, i.e. ribosomal protein L-30 (L-30) and beta-2-microglobulin (B2M). The induction of ABCA1 and ABCG1 by test compound was graphed as a percent of the reference compound, 2-(4-(5-(5-cyano-1-(2,4-difluorobenzyl)-6-oxo-4-(trifluoromethyl)-1,6-dihydropyridin-2-yl)thiophen-2-yl)-3-methylphenyl)acetic acid, and potency (EC50) and activity (% MAX) were calculated by fitting a sigmoidal response curve as a function of log transformed compound concentration using XLFit software according to the equation y=A+((B−A)/(1+((C/x)^D))).

For `Cc1cc(CC(=O)O)ccc1-c1ccc(-c2cc(C(F)(F)F)c(C#N)c(=O)n2Cc2ccc(F)cc2F)s1` [2-(4-(5-(5-cyano-1-(2,4-difluorobenzyl)-6-oxo-4-(trifluoromethyl)-1,6-dihydropyridin-2-yl)thiophen-2-yl)-3-methylphenyl)acetic acid, reference compound], the EC50 was 1000 to 2000 nM.

Broadly, the EC50 is the concentration needed to bring the measured effect to its halfway point.
